Patent US20050227995A1, “Phenyl sulfoxides and phenyl sulfones” (priority 2002, published 2005)

The compounds below were run on Aβ release from human cell lines (H4, HEK293) stably overexpressing human APP695 with Swedish double mutation (assay: Determination of the inhibition of A-beta release in cell culture (IGEN analyzer detection)). Details: H4/HEK293 cells overexpressing human APP695 Swedish mutant; supernatant analyzed after 16 h; 0.5% DMSO.
Format: cell-based
Description: Determination of the Inhibition of A-Beta Release in Cell Culture
In order to be able to measure the inhibition of Aβ release, human cell lines (H4, HEK293) which stably overexpress the 695 amino acid-long, neuronal splice variant of human APP were generated. In order to increase the generated Aβ amount further, in addition a “Swedish” familiar Alzheimer's double mutation in which the lysine and methionine residues respectively at positions 595 and 596 of the molecule APP695 are replaced by the amino acids asparagine and leucine was introduced. The cells were cultivated in Dulbecco's modified Eagles medium (DMEM, with 4500 mg/l glucose; 110 mg/l sodium pyruvate); 5% by volume fetal calf serum (FCS); 1% nonessential amino acids) to which the geniticin G418 selection marker had been added [all cell culture methods were carried out by standard methods; Sambrook, J., Fritsch, E. F., and Maniatis, T. (1989), Molecular cloning: A laboratory manual. Cold Spring Harbour Laboratory Press]. In order to test the effect of substances on the inhibition of APP processing, about 20 000 cells were diluted in a 96 multititer plate. The next day, the culture medium was removed and replaced by biotin- and serum-free medium, in which the substances were diluted to reach a concentration of 10 μM with a dimethyl sulfoxide (DMSO) content of 0.5%. 0.5% DMSO served as control. For substances showing inhibition of the Aβ generation, additionally dose-effect relations were investigated by using different concentrations. After 16 h, the supernatant was removed and analyzed.
b) Detection of Aβ with the IGEN Analyzer
The total amount of Aβ was detected using the following components: 50 μl of cell culture supernatant were mixed with 25 μl of biotinylated antibody 4G8 (recognizes amino acid 17-25 of Aβ), 25 μl of ruthenium complex-labeled antibody 6E10 (recognizes the N terminus of Aβ) and 50 μl of magnetic streptavidin-coupled beads. Aβ40 was detected by using the following components: 50 μl of cell culture supernatant were mixed with 25 μl of biotinylated antibody G2-10 (recognizes the C terminus of Aβ40), 25 μl of ruthenium complex-labeled antibody W02 (recognizes the N terminus of Aβ), and 50 μl of magnetic streptavidin-coupled beads. In parallel, serial dilutions were made with synthetic A040. The samples were shaken at room temperature and then measured using an IGEN analyzer. Typically, each sample was measured three times in at least two independent experiments. The antibodies and solutions used were prepared according to the instructions of the manufacturer of the analyzer, IGEN, Inc. (Gaitersburg, Md., USA). The measurement was likewise carried out as stated by the manufacturer.
For `C[C@H](COC(=O)N1CCC(CCO)CC1)[C@@H](c1cc(F)ccc1F)S(=O)(=O)c1ccc(Cl)cc1` (single isomer, unassigned) [Example 42], the IC50 was 10 to 100 nM.
In the case of `C[C@H](COC(=O)N1CCC(O)CC1)[C@@H](c1cc(F)ccc1F)S(=O)(=O)c1ccc(Cl)cc1` (single isomer, unassigned) [Example 43], the IC50 is reported as 10 to 100 nM.
In the case of `C[C@H](COC(=O)N1CCN(C)CC1)[C@@H](c1cc(F)ccc1F)S(=O)(=O)c1ccc(Cl)cc1` (single isomer, unassigned) [Example 95], the IC50 is reported as 10 to 100 nM.
`CC(COC(=O)N1CCNC(=O)C1)C(c1cc(F)ccc1F)S(=O)(=O)c1ccc(Br)cc1` (single isomer, unassigned) [Example 100] showed an IC50 of 10 to 100 nM.
